Assay results reported in US9499550B2 (BRISTOL-MYERS SQUIBB COMPANY, priority 2012, dated 2016).
Where two headings read alike, the source gives them in different places.

How the values were obtained:
[1] = test system: HCV genotype 1a (H77 strain) replicon in HUH-7 cells; assay: HCV replicon luciferase reporter assay, genotype 1a; assay type: cell-based; details: Hepatitis C virus, Huh-7, 72 h, 3 days incubation, read-out: LE_1a (EC50, range)
Summary of the method: (§1)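 Replicon inhibition for both genotypes was measured as Renilla luciferase signal (EnduRen, 7.5 μM final, 2 h) after 3-day, 37° C exposure of replicon-bearing HUH-7 cells in 4% FCS DMEM, 0.5% DMSO. The 1b construct carries S1179I; the 1a H77 construct carries P1496L and S2204I. Twenty-point, 3-fold dilutions were fitted four-parametrically for EC50, and CC50 was taken from multiplexed Cell Titer-Blue.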

[2] = test system: HCV genotype 1b (Con1) replicon in HUH-7 cells; assay: HCV replicon luciferase reporter assay, genotype 1b; assay type: cell-based; details: Hepatitis C virus, Huh-7, 72 h, 3 days incubation, read-out: LE_1b (EC50, range)
Summary of the method: as §1

[3] = GETYPE1A, HCV genotype 1a replicon luciferase
[4] = GETYPE1B, HCV genotype 1b replicon luciferase
[5] = HCV genotype 1a replicon luciferase
[6] = HCV genotype 1b replicon luciferase
[7] = HCV genotype 1a replicon luciferase assay, range class
[8] = HCV genotype 1b replicon luciferase assay, range class

Structure (SMILES)	EC50 [1, 3] [nM]	EC50 [2, 4] [nM]	EC50 [1, 7] [nM]	EC50 [2, 8] [nM]	other results
CCn1nc(O[C@@H]2C[C@H]3C(=O)N[C@]4(C(=O)NS(=O)(=O)C5(CF)CC5)C[C@H]4/C=C\CC[C@H](C)C[C@@H](C)[C@H](NC(=O)OC(C)(C)C(F)(F)F)C(=O)N3C2)c2ccccc2c1=O [Compound 5077]	4.82 to 103	4.82 to 103	–	–	–
C[C@@H]1CC/C=C\[C@@H]2C[C@@]2(C(=O)NS(=O)(=O)C2(CF)CC2)NC(=O)[C@@H]2C[C@@H](Oc3ncc(N4CCOCC4)c4ccccc34)CN2C(=O)[C@@H](NC(=O)OC(C)(C)C(C)(F)F)[C@H](C)C1 [Compound 5451, 3,3-difluoro-2-methylbutan-2-yl((2R,6S,7R,9R,13aS,14aR,16aS,Z)-14a-(((1-(fluoromethyl)cyclopropyl)sulfonyl)carbamoyl)-7,9-dimethyl-2-((4-morpholinoisoquinolin-1-yl)oxy)-5,16-dioxo-1,2,3,5,6,7,8,9,10,11,13a,14,14a,15,16,16a-hexadecahydrocyclopropa[e]pyrrolo[1,2-a][1,4]diazacyclopentadecin-6-yl)carbamate]	–	–	–	–	EC50 [1, 5]: 1.01 to 5 nM; EC50 [2, 6]: 1.01 to 5 nM
COc1ccc2c(O[C@@H]3C[C@H]4C(=O)N[C@]5(C(=O)NS(=O)(=O)C6CC6)C[C@H]5/C=C\CC[C@H](C)C[C@@H](C)[C@H](NC(=O)O[C@H](C)C(F)(F)F)C(=O)N4C3)nc(-c3ccc(OC(C)C)c(F)c3)cc2c1 [Compound 3073, (R)-1,1,1-trifluoropropan-2-yl ((2R,6S,7R,9S,13aS,14aR,16aS,Z)-14a-((cyclopropylsulfonyl)carbamoyl)-2-((3-(3-fluoro-4-isopropoxyphenyl)-6-methoxyisoquinolin-1-yl)oxy)-7,9-dimethyl-5,16-dioxo-1,2,3,5,6,7,8,9,10,11,13a,14,14a,15,16,16a-hexadecahydrocyclopropa[e]pyrrolo[1,2-a][1,4]diazacyclopentadecin-6-yl)carbamate]	–	–	4.82 to 103	< 5.46	–
COCC(C)(C)OC(=O)N[C@@H]1C(=O)N2C[C@H](Oc3ncc(OC)c4ccccc34)C[C@H]2C(=O)N[C@]2(C(=O)NS(=O)(=O)C3(CF)CC3)C[C@H]2/C=C\CC[C@H](C)C[C@H]1C [Compound 1049, 1-methoxy-2-methylpropan-2-yl((2R,6S,7R,9S,13aS,14aR,16aS,Z)-14a-(((1-(fluoromethyl)cyclopropyl)sulfonyl)carbamoyl)-2-((4-methoxyisoquinolin-1-yl)oxy)-7,9-dimethyl-5,16-dioxo-1,2,3,5,6,7,8,9,10,11,13a,14,14a,15,16,16a-hexadecahydrocyclopropa[e]pyrrolo[1,2-a][1,4]diazacyclopentadecin-6-yl)carbamate]	–	–	4.82 to 103	4.82 to 103	–
C=COc1cnc(O[C@@H]2C[C@H]3C(=O)N[C@]4(C(=O)NS(=O)(=O)C5(C)CC5)C[C@H]4/C=C\CC[C@@H](C)C[C@@H](C)[C@H](NC(=O)OC(C)(C)C(F)(F)F)C(=O)N3C2)c2ccc(OC)cc12 [Compound 4231]	< 5.46	< 5.46	–	–	–
COc1ccc2c(O[C@@H]3C[C@H]4C(=O)N[C@]5(C(=O)NS(=O)(=O)C6(C(F)F)CC6)C[C@H]5/C=C\CC[C@@H](C)C[C@@H](C)[C@H](NC(=O)OC(C)(C)C(C)(F)F)C(=O)N4C3)nc(OC)cc2c1 [Compound 1182]	–	–	–	–	EC50 ([1]; GETYPE1A, HCV genotype 1a replicon luciferase assay, range class): < 5.46 nM; EC50 ([2]; GETYPE1B, HCV genotype 1b replicon luciferase assay, range class): < 5.46 nM
COc1cc2c(OC)cnc(O[C@@H]3C[C@H]4C(=O)N[C@]5(C(=O)NS(=O)(=O)C6(CF)CC6)C[C@H]5/C=C\CC[C@@H](C)C[C@@H](C)[C@H](NC(=O)OC(C)(C)C(F)(F)F)C(=O)N4C3)c2cc1F [Compound 4160]	< 5.46	< 5.46	–	–	–
COc1ccc2c(O[C@@H]3C[C@H]4C(=O)N[C@]5(C(=O)NS(=O)(=O)C6(C)CC6)C[C@H]5/C=C\CC[C@H](C)C[C@@H](C)[C@H](NC(=O)OC(C)(C)C)C(=O)N4C3)nc(-c3ccc(F)cc3)cc2c1 [Compound 3081, tert-butyl ((2R,6S,7R,9S,13aS,14aR,16aS,Z)-2-((3-(4-fluorophenyl)-6-methoxyisoquinolin-1-yl)oxy)-7,9-dimethyl-14a-(((1-methylcyclopropyl)sulfonyl)carbamoyl)-5,16-dioxo-1,2,3,5,6,7,8,9,10,11,13a,14,14a,15,16,16a-hexadecahydrocyclopropa[e]pyrrolo[1,2-a][1,4]diazacyclopentadecin-6-yl)carbamate]	–	–	4.82 to 103	< 5.46	–
CC(C)Oc1cc2c(Cl)cccc2c(O[C@@H]2C[C@H]3C(=O)N[C@]4(C(=O)NS(=O)(=O)C5(C)CC5)C[C@H]4/C=C\CC[C@H](C)C[C@@H](C)[C@H](NC(=O)OC(C)(C)C(F)(F)F)C(=O)N3C2)n1 [Compound 1101, 1,1,1-trifluoro-2-methylpropan-2-yl((2R,6S,7R,9S,13aS,14aR,16aS,Z)-2-((5-chloro-3-isopropoxyisoquinolin-1-yl)oxy)-7,9-dimethyl-14a-(((1-methylcyclopropyl)sulfonyl)carbamoyl)-5,16-dioxo-1,2,3,5,6,7,8,9,10,11,13a,14,14a,15,16,16a-hexadecahydrocyclopropa[e]pyrrolo[1,2-a][1,4]diazacyclopentadecin-6-yl)carbamate]	–	–	4.82 to 103	4.82 to 103	–
[2H]C([2H])([2H])C(C)(OC(=O)N[C@@H]1C(=O)N2C[C@H](Oc3nccc4cc(OC)ccc34)CC2C(=O)N[C@]2(C(=O)NS(=O)(=O)C3(C)CC3)C[C@H]2/C=C\CC[C@@H](C)C[C@H]1C)C([2H])([2H])[2H] (stereo partly drawn) [Compound 5177, 1,1,1,3,3,3-hexadeutero-2-methylpropan-2-yl((2R,6S,7R,9R,13aS,14aR,16aS,Z)-2-((6-methoxyisoquinolin-1-yl)oxy)-7,9-dimethyl-14a-(((1-methylcyclopropyl)sulfonyl)carbamoyl)-5,16-dioxo-1,2,3,5,6,7,8,9,10,11,13a,14,14a,15,16,16a-hexadecahydrocyclopropa[e]pyrrolo[1,2-a][1,4]diazacyclopentadecin-6-yl)carbamate]	–	–	–	–	EC50 [1, 5]: < 5.46 nM; EC50 [2, 6]: < 5.46 nM
COc1ccc2c(Cl)ncc(O[C@@H]3C[C@H]4C(=O)N[C@]5(C(=O)NS(=O)(=O)C6(C)CC6)C[C@H]5/C=C\CC[C@@H](C)C[C@@H](C)[C@H](NC(=O)OC(C)(C)C)C(=O)N4C3)c2c1 [Compound 4375, tert-butyl ((2R,6S,7R,9R,13aS,14aR,16aS,Z)-2-((1-chloro-6-methoxyisoquinolin-4-yl)oxy)-7,9-dimethyl-14a-(((1-methylcyclopropyl)sulfonyl)carbamoyl)-5,16-dioxo-1,2,3,5,6,7,8,9,10,11,13a,14,14a,15,16,16a-hexadecahydrocyclopropa[e]pyrrolo[1,2-a][1,4]diazacyclopentadecin-6-yl)carbamate]	–	–	–	–	EC50 [1, 5]: 1.01 to 5 nM; EC50 [2, 6]: 0.51 to 1 nM
CC[C@@H]1C[C@H](C)CC/C=C\[C@@H]2C[C@@]2(C(=O)NS(=O)(=O)C2(CF)CC2)NC(=O)[C@@H]2C[C@@H](Oc3nc(OC)cc4cc(OC)ccc34)CN2C(=O)[C@H]1NC(=O)OC(C)(C)C(F)(F)F [Compound 1193]	1.01 to 5	0.51 to 1	–	–	–
